How the values were obtained:
VCaP cells = assay: Cellular growth inhibition assay for VCaP cells, CellTiter-Glo; format: cell-based, human; settings: 72 hours
Method in brief: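 GI50 values come from four-parameter curve fits of luminescence data normalized to a zero baseline. Compound, in medium with 0.5% DMSO, was added one day after plating and left for 72 h before CellTiter-Glo 2.0 addition.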

[1] = test system: T-Rex 293 cell line SC3 cells having increased expression of androgen receptor protein due to exposure to doxycycline; assay: Cellular growth inhibition, T-Rex 293 SC3 cells with doxycycline (increased androgen receptor expression), CellTiter-Glo; format: cell-based; settings: T-Rex 293 SC3 cells with 10 ng/mL doxycycline (increased androgen receptor expression), 72 hours, CellTiter-Glo 2.0
Method in brief: (§1)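 Doxycycline (10 ng/mL) was either included or omitted to toggle wild-type androgen receptor expression in SC3 cells, a T-Rex 293 clone, grown in stripped-serum, phenol red-free medium. After 72 hours with compound, viable cells were quantified by CellTiter-Glo 2.0.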

[2] = test system: T-Rex 293 cell line SC3 cells lacking increased expression of androgen receptor protein; assay: Cellular growth inhibition, T-Rex 293 SC3 cells without doxycycline (no increased androgen receptor expression), CellTiter-Glo; format: cell-based; settings: T-Rex 293 SC3 cells not exposed to doxycycline (no increased androgen receptor expression), 72 hours
Method in brief: as §1

[3] = biological target: T1, progesterone receptor ligand binding domain (GST-tagged PR LBD) (Homo sapiens, UniProt P06401); assay: FP Assay for Binding Affinity to Progesterone Receptor (PolarScreen Progesterone Receptor Competitor Assay Kit); settings: fluorescence polarization, Fluormone tracer, 2 hours at room temperature
T1 construct: purchased Life Technologies A15905 or a15906
T1 sequence (P06401 679-913 limits assumed): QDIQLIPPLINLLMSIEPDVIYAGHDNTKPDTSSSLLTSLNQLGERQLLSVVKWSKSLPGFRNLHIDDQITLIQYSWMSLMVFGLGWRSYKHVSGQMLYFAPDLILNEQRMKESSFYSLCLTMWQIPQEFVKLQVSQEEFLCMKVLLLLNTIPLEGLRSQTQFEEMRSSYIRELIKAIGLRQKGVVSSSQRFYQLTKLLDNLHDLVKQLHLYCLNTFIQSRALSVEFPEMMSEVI
Description: Exemplary compounds were tested for ability to bind to the progesterone receptor ligand binding domain (LBD).
Compounds were tested using the PolarScreen™ Progesterone Receptor Competitor Assay Kit (Life Technologies Cat #A15905 or a15906), as per the manufacturer's instructions. Briefly, GST-tagged PR LBD, Fluormone tracer, and compound were mixed and incubated for 2 hours at room temperature in the dark. Following incubation, the plates were spun at 3000×g for 30 seconds, then sealed with an optical adhesive cover, and fluorescence polarization was measured using appropriate excitation and emission filters with an EnVision Plate Reader (Perkin Elmer). Compound concentration vs. mP value were plotted in Prism (GraphPad). A four-parameter non-linear regression curve fit was applied to dose-response data to determine the half-maximal inhibitory concentration (IC50) for each test compound.

T47D cells = assay: Cellular Growth Inhibition Assay for T47D Cells (CellTiter-Glo); format: cell-based, human; settings: 72 hours
Method in brief: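 GI50 values derive from four-parameter regression of CellTiter-Glo 2.0 luminescence, using zero luminescence as baseline. Human breast cancer T47D cells (3000/well; DMEM, 10% FBS, 0.2 units/mL insulin) were exposed for 72 h to compound dilutions at 0.5% DMSO, with dosing starting 24 h after seeding.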

androgen receptor = biological target: T2, androgen receptor (Homo sapiens, UniProt P10275); assay: Assay for binding affinity to androgen receptor ([3H]methyltrienolone radioligand competition, cell cytosol); settings: binding to the androgen receptor, 1 nM [3H]methyltrienolone, 24 hr at 4° C.
T2 construct: host or cells: unnamed cells, cytosolic fraction
T2 sequence (P10275 1-920): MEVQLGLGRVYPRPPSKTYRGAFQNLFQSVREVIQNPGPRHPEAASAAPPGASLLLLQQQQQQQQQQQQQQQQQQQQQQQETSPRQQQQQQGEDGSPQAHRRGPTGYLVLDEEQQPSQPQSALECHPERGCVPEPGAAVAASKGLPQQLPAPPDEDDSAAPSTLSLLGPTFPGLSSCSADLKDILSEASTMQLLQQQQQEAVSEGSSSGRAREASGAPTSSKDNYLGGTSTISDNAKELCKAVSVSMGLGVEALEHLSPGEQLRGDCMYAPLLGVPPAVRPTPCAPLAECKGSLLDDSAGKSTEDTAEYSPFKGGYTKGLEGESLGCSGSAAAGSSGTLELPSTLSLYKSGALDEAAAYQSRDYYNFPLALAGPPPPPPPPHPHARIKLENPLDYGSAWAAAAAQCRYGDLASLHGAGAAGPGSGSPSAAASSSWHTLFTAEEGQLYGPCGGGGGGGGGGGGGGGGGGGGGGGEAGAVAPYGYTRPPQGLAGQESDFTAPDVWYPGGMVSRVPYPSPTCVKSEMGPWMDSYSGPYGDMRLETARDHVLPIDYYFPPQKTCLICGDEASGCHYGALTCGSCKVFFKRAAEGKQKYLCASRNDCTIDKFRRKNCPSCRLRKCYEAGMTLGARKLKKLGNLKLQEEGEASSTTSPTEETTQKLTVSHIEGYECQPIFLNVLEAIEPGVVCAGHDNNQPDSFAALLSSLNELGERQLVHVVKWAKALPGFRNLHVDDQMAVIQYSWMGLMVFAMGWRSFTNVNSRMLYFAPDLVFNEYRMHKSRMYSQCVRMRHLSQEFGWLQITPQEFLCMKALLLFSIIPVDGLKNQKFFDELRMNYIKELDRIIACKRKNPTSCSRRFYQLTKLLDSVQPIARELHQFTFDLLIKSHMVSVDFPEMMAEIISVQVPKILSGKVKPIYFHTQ
Description: Fractions of cell cytosol ([…]) were incubated for 24 hr at 4° C. with 1 nM [^3H]methyltrienolone in the absence or presence of the test compound in a buffer containing 25 mM Hepes-Tris (pH 7.4), 1 mM EDTA, 10 mM Na2MoO4, 2 mM DTT, 5 μM triamcinolone acetonide, and 10% glycerol. Nonspecific binding was determined in the presence of […] testosterone. Following incubation, the samples were filtered rapidly under vacuum through glass fiber filters (GF/B, Packard) presoaked with 0.3% PEI and rinsed several times with ice-cold 50 mM Tris-HCl using a 96-sample cell harvester (Unifilter, Packard). The filters were dried then counted for radioactivity in a scintillation counter (Topcount, Packard) using a scintillation cocktail (Microscint 0, Packard). The results are expressed as a percent inhibition of the control radioligand specific binding. The standard reference compound is testosterone, which is tested in each experiment at several concentrations to obtain a competition curve from which its IC50 is calculated.

Compound: CN(CCCCc1ccc(Oc2ccc(C(C)(C)O)cc2-c2cn(C)c(=O)c3[nH]ccc23)cc1)c1ncc(C(=O)N[C@H]2C(C)(C)[C@H](Oc3ccc(C#N)c(Cl)c3)C2(C)C)cn1 [Compound I-218]
- GI50 (VCaP cells; Homo sapiens): 1500 to 3000 nM
- GI50 [1]: < 500 nM
- GI50 [2]: 1500 to 3000 nM
- IC50 [3]: 50 to 500 nM
- GI50 (T47D cells; Homo sapiens): 500 to 1500 nM

Compound: Cn1cc(-c2cc(C(C)(C)O)ccc2Oc2ccc(OCC3CCN(c4ncc5c(n4)CN([C@H]4C(C)(C)[C@H](Oc6ccc(C#N)c(Cl)c6)C4(C)C)C5=O)CC3)cc2)c2cc[nH]c2c1=O [Compound I-233]
- GI50 (VCaP cells; Homo sapiens): < 500 nM
- GI50 [1]: 500 to 1500 nM
- GI50 [2]: > 3000 nM
- IC50 [3]: > 2500 nM
- GI50 (T47D cells; Homo sapiens): 500 to 1500 nM

Compound: CCS(=O)(=O)Nc1ccc(Oc2cccc(OCCOC3CCN(c4ccc(C(=O)N[C@H]5C(C)(C)[C@H](Oc6ccc(C#N)c(Cl)c6)C5(C)C)cc4)CC3)c2)c(-c2cn(C)c(=O)c3[nH]ccc23)c1 [Compound I-69, N-((1r, 3r)-3-(3-chloro-4-cyanophenoxy)-2,2,4,4-tetramethylcyclobutyl)-4-(4-(2-(3-(4-(ethylsulfonamido)-2-(6-methyl-7-oxo-6,7-dihydro-1H-pyrrolo[2,3-c]pyridin-4-yl)phenoxy)phenoxy)ethoxy)piperidin-1-yl)benzamide]
- GI50 (VCaP cells; Homo sapiens): < 500 nM
- GI50 [1]: < 500 nM
- GI50 [2]: < 500 nM
- Ki (androgen receptor): < 50 nM

Compound: Cn1cc(-c2cc(C(C)(C)O)ccc2Oc2cccc(OCCN3CCN(c4ncc5c(n4)CN([C@H]4C(C)(C)[C@H](Oc6ccc(C#N)c(Cl)c6)C4(C)C)C5=O)CC3)c2F)c2cc[nH]c2c1=O [Compound I-227]
- GI50 (VCaP cells): < 500 nM
- GI50 [1]: < 500 nM
- GI50 [2]: < 500 nM
- IC50 [3]: < 50 nM
- GI50 (T47D cells): < 500 nM

Compound: CC(C)N(CCOc1cccc(Oc2ccc(C(C)(C)O)cc2-c2cn(C)c(=O)c3[nH]ccc23)c1F)C1CCN(c2ncc(C(=O)N[C@H]3C(C)(C)[C@H](Oc4ccc(C#N)c(Cl)c4)C3(C)C)cn2)CC1 [Compound I-224]
- GI50 (VCaP cells; Homo sapiens): < 500 nM
- GI50 [1]: < 500 nM
- GI50 [2]: < 500 nM
- IC50 [3]: 50 to 500 nM
- GI50 (T47D cells; Homo sapiens): < 500 nM

Compound: CCS(=O)(=O)c1ccc(Oc2cccc(CCCC3CCN(c4ncc(C(=O)N[C@H]5C(C)(C)[C@H](Oc6ccc(C#N)c(Cl)c6)C5(C)C)cn4)CC3)c2F)c(-c2cn(C)c(=O)c3[nH]ccc23)c1 [Compound I-245]
- GI50 (VCaP cells): 500 to 1500 nM
- GI50 [1]: < 500 nM
- GI50 [2]: > 3000 nM
- IC50 [3]: 500 to 2500 nM
- GI50 (T47D cells): < 500 nM

Compound: CCS(=O)(=O)Nc1ccc(Oc2cccc(N3CC(C4CCN(c5ncc(C(=O)N[C@H]6C(C)(C)[C@H](Oc7ccc(C#N)c(Cl)c7)C6(C)C)cn5)CC4)C3)c2)c(-c2cn(C)c(=O)c3[nH]ccc23)c1 [Compound I-74]
- GI50 (VCaP cells; Homo sapiens): < 500 nM
- GI50 [1]: < 500 nM
- GI50 [2]: < 500 nM
- IC50 [3]: > 2500 nM
- GI50 (T47D cells; Homo sapiens): < 500 nM

Compound: Cn1cc(-c2cc(C(C)(C)O)ccc2Oc2cccc(OCCN3CCC34CN(c3ncc(C(=O)N[C@H]5C(C)(C)[C@H](Oc6ccc(C#N)c(Cl)c6)C5(C)C)cn3)C4)c2F)c2cc[nH]c2c1=O [Compound I-222]
- GI50 (VCaP cells; Homo sapiens): < 500 nM
- GI50 [1]: < 500 nM
- GI50 [2]: 500 to 1500 nM
- IC50 [3]: 500 to 2500 nM
- GI50 (T47D cells; Homo sapiens): 500 to 1500 nM

Compound: CCS(=O)(=O)Nc1ccc(Oc2cccc(N(C)CCNC3CCN(c4ncc(C(=O)N[C@H]5C(C)(C)[C@H](Oc6ccc(C#N)c(Cl)c6)C5(C)C)cn4)CC3)c2)c(-c2cn(C)c(=O)c3[nH]ccc23)c1 [Compound I-83]
- GI50 (VCaP cells; Homo sapiens): < 500 nM
- GI50 [1]: < 500 nM
- GI50 [2]: > 3000 nM
- IC50 [3]: 50 to 500 nM
- GI50 (T47D cells; Homo sapiens): < 500 nM

Compound: Cn1cc(-c2cc(C(C)(C)O)ccc2Oc2ccc(F)c(OCCC3CC4(C3)CN(c3ncc(C(=O)N[C@H]5C(C)(C)[C@H](Oc6ccc(C#N)c(Cl)c6)C5(C)C)cn3)C4)c2F)c2cc[nH]c2c1=O [Compound I-225]
- GI50 (VCaP cells): < 500 nM
- GI50 [1]: < 500 nM
- GI50 [2]: < 500 nM
- IC50 [3]: < 50 nM
- GI50 (T47D cells): < 500 nM

Compound: CCS(=O)(=O)Nc1ccc(Oc2cccc(OCCOC3CCN(c4ccc(C(=O)N[C@H]5C(C)(C)[C@H](Oc6ccc(C#N)c(Cl)c6)C5(C)C)nc4)CC3)c2)c(-c2cn(C)c(=O)c3[nH]ccc23)c1 [Compound I-72, N-((1r, 3r)-3-(3-chloro-4-cyanophenoxy)-2,2,4,4-tetramethylcyclobutyl)-5-(4-(2-(3-(4-(ethylsulfonamido)-2-(6-methyl-7-oxo-6,7-dihydro-1H-pyrrolo[2,3-c]pyridin-4-yl)phenoxy)phenoxy)ethoxy)piperidin-1-yl)picolinamide]
- GI50 (VCaP cells; Homo sapiens): < 500 nM
- GI50 [1]: < 500 nM
- GI50 [2]: < 500 nM
- Ki (androgen receptor): 50 to 500 nM

Compound: CCS(=O)(=O)Nc1ccc(Oc2cccc(OCCOC3CCN(c4cnc(C(=O)N[C@H]5C(C)(C)[C@H](Oc6ccc(C#N)c(Cl)c6)C5(C)C)nc4)CC3)c2)c(-c2cn(C)c(=O)c3[nH]ccc23)c1 [Compound I-73, N-((1r, 3r)-3-(3-chloro-4-cyanophenoxy)-2,2,4,4-tetramethylcyclobutyl)-5-(4-(2-(3-(4-(ethylsulfonamido)-2-(6-methyl-7-oxo-6,7-dihydro-1H-pyrrolo[2,3-c]pyridin-4-yl)phenoxy)phenoxy)ethoxy)piperidin-1-yl)pyrimidine-2-carboxamide]
- GI50 (VCaP cells; Homo sapiens): < 500 nM
- GI50 [1]: < 500 nM
- GI50 [2]: < 500 nM
- Ki (androgen receptor): 50 to 500 nM

Compound: Cn1cc(-c2cc(C(C)(C)O)ccc2Oc2cccc(OCCN3CC4(C3)CN(c3ncc(C(=O)N[C@H]5C(C)(C)[C@H](Oc6ccc(C#N)c(Cl)c6)C5(C)C)cn3)C4)c2F)c2cc[nH]c2c1=O [Compound I-229]
- GI50 (VCaP cells): < 500 nM
- GI50 [1]: < 500 nM
- GI50 [2]: 500 to 1500 nM
- IC50 [3]: 50 to 500 nM
- GI50 (T47D cells): < 500 nM

Compound: CC(C)N(CCN(C)C1CCN(c2ncc(C(=O)N[C@H]3C(C)(C)[C@H](Oc4ccc(C#N)c(Cl)c4)C3(C)C)cn2)CC1)c1cccc(Oc2ccc(C(C)(C)O)cc2-c2cn(C)c(=O)c3[nH]ccc23)c1F [Compound I-226]
- GI50 (VCaP cells): 500 to 1500 nM
- GI50 [1]: < 500 nM
- GI50 [2]: 500 to 1500 nM
- IC50 [3]: < 50 nM
- GI50 (T47D cells): > 3000 nM

— US20250388605A1, “HETEROBIFUNCTIONAL COMPOUNDS AND METHODS OF TREATING DISEASE” (Halda Therapeutics OpCo, Inc., priority 2022, published 2025)
